Measured values from patent publication US20220315554A1, “COMPOUNDS COMPRISING A […] LIGAND AND USE THEREOF” (priority 2019, published 2022).
Numbered stars: 1 amine (or outer) side, 2 acyl side, 3 side chain; on linkers, the order of the positions; unused ones are H or OH. Bridge positions count the residues as written; N and C are the ends. Peptide text beside a SMILES is read from it. * marks the point of attachment. X22 = O=C1CN2CCN3CCN(CC(=O)N4CCN(Cc5cc(C[*:1])cc(C[*:2])c5)CC4)CCN(CC2)CC(=O)[O][Lu]([O]1)[O]C(=O)C3; X4 = O=C1CN2CCN3CCN(CC(=O)N4CCN(Cc5cc(C[*:1])cc(C[*:2])c5)CC4)CCN(CC2)CC(=O)[O][In]([O]1)[O]C(=O)C3; X1 = O=C(O)CN1CCN(CC(=O)O)CCN(CC(=O)N2CCN(Cc3cc(C[*:1])cc(C[*:2])c3)CC2)CCN(CC(=O)O)CC1; X13 = O=C(O)CN1CCN(CC(=O)O)CCN(CC(=O)NCCSCc2cc(CSCCN[*:2])cc(C[*:1])c2)CCN(CC(=O)O)CC1; NH(CH2)5NHDOTA = O=C(O)CN1CCN(CC(=O)O)CCN(CC(=O)NCCCCCN*)CCN(CC(=O)O)CC1; mXylylene = c1cc(C[*:1])cc(C[*:2])c1; Pentanesulfonyl = CCCCCS(=O)(=O)*; Hexanoyl = CCCCCC(=O)*

Experiments:
[1] = target: T1, FAP-expressing human WI-38 fibroblasts (Homo sapiens, UniProt Q12884); assay: Competitive FACS binding assay; details: pIC50 Category (FACS), competition with 3 nM Cy5-labeled compound, 4° C., 1 hour
T1 construct: FAP-expressing human WI-38 fibroblasts (ECACC) were cultured in EMEM; host or cells: WI-38 human fibroblasts
T1 sequence (Q12884 1-760): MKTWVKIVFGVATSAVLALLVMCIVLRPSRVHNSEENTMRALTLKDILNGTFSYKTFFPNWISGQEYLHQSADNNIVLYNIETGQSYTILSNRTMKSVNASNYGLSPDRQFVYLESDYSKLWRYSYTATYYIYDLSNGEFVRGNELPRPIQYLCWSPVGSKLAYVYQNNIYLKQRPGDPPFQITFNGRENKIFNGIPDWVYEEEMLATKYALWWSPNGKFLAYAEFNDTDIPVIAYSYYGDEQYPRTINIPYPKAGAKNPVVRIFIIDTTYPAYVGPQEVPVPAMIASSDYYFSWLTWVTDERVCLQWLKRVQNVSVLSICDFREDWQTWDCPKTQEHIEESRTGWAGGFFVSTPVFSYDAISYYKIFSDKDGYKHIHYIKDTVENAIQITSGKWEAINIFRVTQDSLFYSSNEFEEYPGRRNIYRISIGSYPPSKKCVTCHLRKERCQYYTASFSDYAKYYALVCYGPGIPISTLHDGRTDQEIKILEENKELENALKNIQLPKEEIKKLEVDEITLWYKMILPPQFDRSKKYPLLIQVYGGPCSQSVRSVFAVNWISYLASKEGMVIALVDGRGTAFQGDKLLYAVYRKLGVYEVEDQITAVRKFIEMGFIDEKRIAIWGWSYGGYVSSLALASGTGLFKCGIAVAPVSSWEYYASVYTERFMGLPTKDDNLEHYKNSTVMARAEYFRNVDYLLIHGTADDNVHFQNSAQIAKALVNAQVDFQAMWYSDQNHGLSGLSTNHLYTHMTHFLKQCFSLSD
Method: Cells were analyzed in an Attune NxT flow cytometer. […]

Human recombinant FAP [2] = target: T2, Human recombinant FAP (Homo sapiens, UniProt Q12884); assay: Surface plasmon resonance (Biacore) assay; type: binding
T2 sequence (Q12884 1-760): T1 sequence (Q12884 1-760)

Human recombinant FAP [3] = target: T2, Human recombinant FAP; assay: FRET-based FAP protease activity assay; type: biochemical; parameters: purchased R&D systems 3715-SE; details: pIC50 Category (Activity), FRET substrate, 37° C.

| SMILES | IC50 ([1]; WI-38 fibroblasts) [nM] | Kd (Human recombinant FAP [2]) [nM] | IC50 (Human recombinant FAP [3]; recombinant human FAP) [nM] | IC50 [1] [nM] | IC50 (Human recombinant FAP [3]) [nM] |
| --- | --- | --- | --- | --- | --- |
| CCCCCC(=O)N[C@H]1CSCc2cccc(c2)CSC[C@@H](C(=O)N[C@@H](CC(=O)O)C(=O)NCCCCCNC(=O)CN2CCN(CC(=O)O)CCN(CC(=O)O)CCN(CC(=O)O)CC2)NC(=O)[C@H](Cc2ccccc2)NC(=O)[C@H](CCC(N)=O)NC(=O)[C@H]([C@@H](C)O)NC(=O)[C@@H]2CCCN2C(=O)[C@@H]2CCCN2C1=O [3BP-3403, Hex-[Cys(3MeBn)-Pro-Pro-Thr-Gln-Phe-Cys]-Asp-Ape(DOTA)] (Hexanoyl-CPPTQFCD-{NH(CH2)5NHDOTA}; linker 1-7 via mXylylene) | < 10 | < 10 | < 10 | – | – |
| CCCCCS(=O)(=O)N[C@H]1CSCc2cc(cc(CN3CCN(C(=O)CN4CCN(CC(=O)O)CCN(CC(=O)O)CCN(CC(=O)O)CC4)CC3)c2)CSC[C@@H](C(=O)N[C@@H](CC(=O)O)C(=O)O)NC(=O)[C@H](Cc2ccccc2)NC(=O)[C@H](CCC(N)=O)NC(=O)[C@H]([C@@H](C)O)NC(=O)[C@@H]2CCCN2C(=O)[C@@H]2CCCN2C1=O [3BP-3692, Pentyl-SO2-[Cys(tMeBn(DOTA-PP))-Pro-Pro-Thr-Gln-Phe-Cys]-Asp-NH2] (Pentanesulfonyl-CPPTQFCD-OH; linker 1-7 via X1) | – | < 10 | – | < 10 | < 10 |
| CCCCCC(=O)N[C@H]1CSCc2cc(CSCCNC(=O)CN3CCN(CC(=O)O)CCN(CC(=O)O)CCN(CC(=O)O)CC3)cc(c2)CSCCNC(=O)[C@H](Cc2ccccc2)NC(=O)[C@H](CCC(N)=O)NC(=O)[C@H]([C@@H](C)O)NC(=O)[C@@H]2CCCN2C(=O)[C@@H]2CCCN2C1=O [3BP-3654, Hex-[Cys(tMeBn(DOTA-AET))-Pro-Pro-Thr-Gln-Phe-AET]] (Hexanoyl-CPPTQF; linker 1-C via X13) | < 10 | < 10 | < 10 | – | – |
| CCCCCC(=O)N[C@H]1CSCc2cc(cc(CN3CCN(C(=O)CN4CCN5CCN6CCN(CC4)CC(=O)[O][Lu]([O]C(=O)C6)[O]C(=O)C5)CC3)c2)CSC[C@@H](C(=O)N[C@@H](CC(=O)O)C(N)=O)NC(=O)[C@H](Cc2ccccc2)NC(=O)[C@H](CCC(N)=O)NC(=O)[C@H]([C@@H](C)O)NC(=O)[C@@H]2CCCN2C(=O)[C@@H]2CCCN2C1=O [3BP-3591, Lutetium-Complex of Hex-[Cys(tMeBn(DOTA-PP))-Pro-Pro-Thr-Gln-Phe-Cys]-Asp-NH2] (Hexanoyl-CPPTQFCD-NH2; linker 1-7 via X22) | < 10 | < 10 | < 10 | – | – |
| CCCCCC(=O)N[C@H]1CSCc2cc(CSCCNC(=O)CN3CCN4CCN5CCN(CC3)CC(=O)[O][In]([O]C(=O)C4)[O]C(=O)C5)cc(c2)CSC[C@@H](C(=O)N(C)CC(=O)O)NC(=O)[C@H](Cc2ccccc2)NC(=O)[C@H](CCC(N)=O)NC(=O)[C@H]([C@@H](C)O)NC(=O)[C@@H]2CCCN2C(=O)[C@@H]2CCCN2C1=O [3BP-3715, Hex-[Cys(tMeBn(InDOTA-AET))-Pro-Pro-Thr-Gln-Phe-Cys]-Nmg-OH] | – | < 10 | – | < 10 | < 10 |
| CCCCCS(=O)(=O)N[C@H]1CSCc2cc(CSCCNC(=O)CN3CCN(CC(=O)O)CCN(CC(=O)O)CCN(CC(=O)O)CC3)cc(c2)CSC[C@@H](C(=O)O)NC(=O)[C@H](Cc2ccccc2)NC(=O)[C@H](CCC(N)=O)NC(=O)[C@H]([C@@H](C)O)NC(=O)[C@@H]2CCCN2C(=O)[C@@H]2CCCN2C1=O [3BP-3690, Pentyl-SO2-[Cys(tMeBn(DOTA-AET))-Pro-Pro-Thr-Gln-Phe-Cys]-OH] | – | < 10 | – | < 10 | < 10 |
| CCCCCC(=O)N[C@H]1CSCc2cc(CSCCNC(=O)CN3CCN4CCN5CCN(CC3)CC(=O)[O][In]([O]C(=O)C4)[O]C(=O)C5)cc(c2)CSC[C@@H](C(N)=O)NC(=O)[C@H](Cc2ccccc2)NC(=O)[C@H](CCC(N)=O)NC(=O)[C@H]([C@@H](C)O)NC(=O)[C@@H]2CCCN2C(=O)[C@@H]2CCCN2C1=O [3BP-3712, Hex-[Cys(tMeBn(InDOTA-AET))-Pro-Pro-Thr-Gln-Phe-Cys]-NH2] | – | < 10 | – | < 10 | < 10 |
| CCCCCC(=O)N[C@H]1CSCc2cc(CSCCNC(=O)COCCOCCNC(=O)C(CNCCN)CNCCN)cc(c2)CSC[C@@H](C(=O)O)NC(=O)[C@H](Cc2ccccc2)NC(=O)[C@H](CCC(N)=O)NC(=O)[C@H]([C@@H](C)O)NC(=O)[C@@H]2CCCN2C(=O)[C@@H]2CCCN2C1=O [3BP-4088, Hex-[Cys-(tMeBn(N4Ac-O2Oc-AET))-Pro-Pro-Thr-Gln-Phe-Cys]-OH] | – | < 10 | – | < 10 | < 10 |
| CCCCCC(=O)N[C@H]1CSCc2cc(CSCCNC(=O)C(CNCCN)CNCCN)cc(c2)CSC[C@@H](C(=O)O)NC(=O)[C@H](Cc2ccccc2)NC(=O)[C@H](CCC(N)=O)NC(=O)[C@H]([C@@H](C)O)NC(=O)[C@@H]2CCCN2C(=O)[C@@H]2CCCN2C1=O [3BP-4063, Hex-[Cys-(tMeBn(N4Ac-AET))-Pro-Pro-Thr-Gln-Phe-Cys]-OH] | – | < 10 | – | < 10 | < 10 |
| CCCCCS(=O)(=O)N[C@H]1CSCc2cc(cc(CN3CCN(C(=O)CN4CCN5CCN6CCN(CC4)CC(=O)[O][In]([O]C(=O)C6)[O]C(=O)C5)CC3)c2)CSC[C@@H](C(=O)N[C@@H](CC(=O)O)C(N)=O)NC(=O)[C@H](Cc2ccccc2)NC(=O)[C@H](CCC(N)=O)NC(=O)[C@H]([C@@H](C)O)NC(=O)[C@@H]2CCCN2C(=O)[C@@H]2CCCN2C1=O [3BP-3717, Pentyl-SO2-[Cys(tMeBn(InDOTA-PP))-Pro-Pro-Thr-Gln-Phe-Cys]-Asp-NH2] (Pentanesulfonyl-CPPTQFCD-NH2; linker 1-7 via X4) | – | < 10 | – | < 10 | < 10 |
| CCCCCC(=O)N[C@H]1CSCc2cc(CSCCNC(=O)CN3CCN(CC(=O)O)CCN(CC(=O)O)CCN(CC(=O)O)CC3)cc(c2)CSC[C@@H](C(=O)N(C)CC(N)=O)NC(=O)[C@H](Cc2ccccc2)NC(=O)[C@H](CCC(N)=O)NC(=O)[C@H]([C@@H](C)O)NC(=O)[C@@H]2CCCN2C(=O)[C@@H]2CCCN2C1=O [3BP-3737, Hex-[Cys(tMeBn(DOTA-AET))-Pro-Pro-Thr-Gln-Phe-Cys]-Nmg-NH2] | – | < 10 | – | < 10 | < 10 |
| CCCCCC(=O)N[C@H]1CSCc2cc(CSCCNC(=O)CCC(=O)NCCCOCCOCCOCCCNC(=O)CCP(=O)(O)CN3CCN(CP(=O)(O)CO)CCN(CP(=O)(O)CO)CC3)cc(c2)CSC[C@@H](C(=O)O)NC(=O)[C@H](Cc2ccccc2)NC(=O)[C@H](CCC(N)=O)NC(=O)[C@H]([C@@H](C)O)NC(=O)[C@@H]2CCCN2C(=O)[C@@H]2CCCN2C1=O [3BP-4385, Hex-[Cys(tMeBn(NOPO-Ttds-AET))-Pro-Pro-Thr-Gln-Phe-Cys]-OH] | – | – | – | 10 to 79.4 | 10 to 79.4 |
| CCCCCC(=O)N[C@H]1CSCc2cccc(c2)CSC[C@@H](C(N)=O)NC(=O)[C@H](Cc2c[nH]c3ccccc23)NC(=O)[C@H](CCC(N)=O)NC(=O)[C@H]([C@@H](C)O)NC(=O)[C@@H]2CCCN2C(=O)[C@@H]2CCCN2C1=O [3BP-3408, Hex-[Cys(3MeBn)-Pro-Pro-Thr-Gln-Trp-Cys]-NH2] (Hexanoyl-CPPTQWC-NH2; linker 1-7 via mXylylene) | 10 to 79.4 | – | 10 to 79.4 | – | – |
| CCCCCC(=O)N[C@H]1CSCc2cccc(c2)CSC[C@@H](C(=O)O)NC(=O)[C@H](Cc2ccccc2)NC(=O)[C@H](CCC(=O)O)NC(=O)[C@H]([C@@H](C)O)NC(=O)[C@@H]2CCCN2C(=O)[C@@H]2CCCN2C1=O [3BP-3370, Hex-[Cys(3MeBn)-Pro-Pro-Thr-Glu-Phe-Cys]-OH] (Hexanoyl-CPPTEFC-OH; linker 1-7 via mXylylene) | 10 to 79.4 | – | 10 to 79.4 | – | – |
| CCCCCC(=O)N[C@H]1CSCc2cc(CSCCNC(=O)CCC(=O)NCCCOCCOCCOCCCNC(=O)CCC(=O)NCCCOCCOCCOCCCNC(=O)CCC(=O)NCCCOCCOCCOCCCNC(=O)CCCNCCCOCCOCCOCCCNC(=O)CCCC[C@H]3SC[C@H]4NC(=O)N[C@H]43)cc(c2)CSC[C@@H](C(=O)O)NC(=O)[C@H](Cc2ccccc2)NC(=O)[C@H](CCC(N)=O)NC(=O)[C@H]([C@@H](C)O)NC(=O)[C@@H]2CCCN2C(=O)[C@@H]2CCCN2C1=O [3BP-4170, Hex-[Cys-(tMeBn(Bio-Ttds-Ttds-Ttds-Ttds-AET))-Pro-Pro-Thr-Gln-Phe-Cys]-OH] | – | – | – | 10 to 79.4 | 10 to 79.4 |
